Laboratory results from US8716289B2, “Carbamate derivatives of alkyl-heterocycles, preparation thereof and therapeutic use thereof” (Sanofi, priority 2008, dated 2014).

Row | SMILES | melting point
1 | CC(C)c1nc(COC(=O)NCC2CCN(c3nnc(Cl)c4ccccc34)CC2)no1 [Compound 59, 5-isopropyl[1,2,4]oxadiazol-3-ylmethyl [1-(4-chlorophthalazin-1-yl)piperidin-4-yl]methylcarbamate] | 139 to 141 °C
2 | O=C(NCCC1CCN(c2ccc3cc(Cl)ccc3n2)CC1)OCc1cc(C(=O)O)no1 [Compound 53, 5-{2-[1-(6-chloroquinolin-2-yl)piperidin-4-yl]ethylcarbamoyloxymethyl}isoxazole-3-carboxylic acid] | 180 to 182 °C
3 | CNC(=O)c1cc(COC(=O)NCCC2(CC(C)C)CCN(c3ccc([N+](=O)[O-])cc3C(F)(F)F)CC2)on1 [Compound 66, 3-methylcarbamoylisoxazol-5-ylmethyl {2-[4-isobutyl-1-(4-nitro-2-trifluoromethylphenyl)piperidin-4-yl]ethyl}carbamate] | 145 to 147 °C
4 | COc1ccc(-c2nnc(COC(=O)NCCC3CCN(c4ccc5cc(Cl)ccc5n4)CC3)o2)cc1 [Compound 14, 5-(4-methoxyphenyl)[1,3,4]oxadiazol-2-ylmethyl 2-[1-(6-chloroquinolin-2-yl)piperidin-4-yl]ethylcarbamate] | 154 to 156 °C
5 | CNC(=O)c1cc(COC(=O)NCCC2CCN(c3cnc(-c4ccc(F)cc4)cn3)CC2)on1 [Compound 69, 3-methylcarbamoylisoxazol-5-ylmethyl (2-{1-[5-(4-fluorophenyl)pyrazin-2-yl]piperidin-4-yl}ethyl)carbamate] | 181.5 to 183.5 °C
6 | O=C(NCCC1CCN(c2ccc3cc(Cl)ccc3n2)CC1)OCc1nc(-c2cccc(F)c2)no1 [Compound 16, 3-(3-fluorophenyl)[1,2,4]oxadiazol-5-ylmethyl 2-[1-(6-chloroquinolin-2-yl)piperidin-4-yl]ethylcarbamate] | 134 to 136 °C
7 | Cn1ccnc1C(OC(=O)NCCC1CCN(c2ccc3cc(Cl)ccc3n2)CC1)C(F)(F)F (racemic) [Compound 73, 2,2,2-trifluoro-1-(1-methyl-1H-imidazol-2-yl)ethyl {2-[1-(6-chloroquinolin-2-yl)piperidin-4-yl]ethyl}carbamate] | 196 to 198 °C
8 | CCOC(=O)c1cc(COC(=O)NCCC2CCN(c3ccc4cc(Cl)ccc4n3)CC2)on1 [Compound 71, ethyl 5-{2-[1-(6-chloroquinolin-2-yl)piperidin-4-yl]-ethylcarbamoyloxymethyl}isoxazole-3-carboxylate] | 117 to 119 °C
9 | CNC(=O)c1cc(COC(=O)NC2CCN(c3cnc4cc(Cl)ccc4n3)CC2)on1 [Compound 77, 3-methylcarbamoylisoxazol-5-ylmethyl [1-(6-chloroquinoxalin-2-yl)piperidin-4-yl]carbamate] | 232 to 234 °C
10 | O=C(NCCC1CCN(c2ccc3cc(Cl)ccc3n2)CC1)OCc1nsc(-c2ccc(Cl)cc2)n1 [Compound 17, 5-(4-chlorophenyl)[1,2,4]thiadiazol-3-ylmethyl 2-[1-(6-chloroquinolin-2-yl)piperidin-4-yl]ethylcarbamate] | 191 to 193 °C
11 | CC(C)c1nc(COC(=O)NCC2CCN(c3nccc(C(F)(F)F)n3)CC2)no1 [Compound 55, 5-isopropyl[1,2,4]oxadiazol-3-ylmethyl [1-(4-trifluoromethylpyrimidin-2-yl)piperidin-4-yl]methylcarbamate] | 104 to 106 °C
12 | CNC(=O)c1cc(COC(=O)NCCC2(C)CCN(c3cnc4cc(Cl)ccc4n3)CC2)on1 [Compound 78, 3-methylcarbamoylisoxazol-5-ylmethyl {2-[1-(6-chloroquinoxalin-2-yl)-4-methylpiperidin-4-yl]ethyl}carbamate] | 167 to 169 °C
13 | CN(C)C(=O)c1cc(COC(=O)NCCC2CCN(c3cccc(-c4ccc(F)cc4)n3)CC2)on1 [Compound 27, 3-dimethylcarbamoylisoxazol-5-ylmethyl 2-[6′-(4-fluorophenyl)-3,4,5,6-tetrahydro-2H-[1,2′]bipyridinyl-4-yl]-ethylcarbamate] | 81 to 83 °C
14 | CN(C)C(=O)c1cc(COC(=O)NCCC2CCN(c3ccc4cc(Cl)ccc4n3)CC2)on1 [Compound 31, 3-dimethylcarbamoylisoxazol-5-ylmethyl 2-[1-(6-chloroquinolin-2-yl)piperidin-4-yl]ethylcarbamate] | 114 to 116 °C
15 | O=C(NCCC1CCN(c2ccc3cc(Cl)ccc3n2)CC1)OCc1nnc(-c2ccc(Cl)cc2)o1 [Compound 13, 5-(4-chlorophenyl)[1,3,4]oxadiazol-2-ylmethyl 2-[1-(6-chloroquinolin-2-yl)piperidin-4-yl]ethylcarbamate] | 152 to 153 °C
16 | CNC(=O)c1cc(COC(=O)NCCC2CCN(c3cncc(-c4ccc(F)cc4)n3)CC2)on1 [Compound 32, 3-methylcarbamoylisoxazol-5-ylmethyl 2-{1-[6-(4-fluorophenyl)pyrazin-2-yl]piperidin-4-yl}ethylcarbamate] | 150 to 152 °C
17 | CC(C)(C)c1nnc(COC(=O)NCCC2CCN(c3ccc(-c4ccc(F)cc4)cn3)CC2)s1 [Compound 10, 5-tert-butyl[1,3,4]thiadiazol-2-ylmethyl 2-[5′-(4-fluorophenyl)-3,4,5,6-tetrahydro-2H-[1,2′]bipyridinyl-4-yl]-ethylcarbamate] | 139 to 140 °C
18 | CC(C)c1nc(COC(=O)NCC2CCN(c3nccc4ccccc34)CC2)no1 [Compound 67, 5-isopropyl[1,2,4]oxadiazol-3-ylmethyl (1-isoquinolin-1-ylpiperidin-4-ylmethyl)carbamate] | 95 to 97 °C
19 | CC(C)CC(OC(=O)NCCC1CCN(c2cccc(-c3ccc(F)cc3)n2)CC1)c1ccoc1 (racemic) | 101 to 103 °C
20 | CNC(=O)c1cc(COC(=O)NC2CCN(c3nnc(Cl)c4ccccc34)CC2)on1 [Compound 75, 3-methylcarbamoylisoxazol-5-ylmethyl [1-(4-chlorophthalazin-1-yl)piperidin-4-yl]carbamate] | 208 to 210 °C
21 | O=C(NCCC1CCN(c2ccc3cc(Cl)ccc3n2)CC1)OCc1cc(-c2ccc(Cl)cc2)no1 [Compound 3, 3-(4-chlorophenyl)isoxazol-5-ylmethyl 2-[1-(6-chloroquinolin-2-yl)piperidin-4-yl]ethylcarbamate] | 139 to 140 °C
22 | CN(C)C(=O)c1cc(COC(=O)NCCC2CCN(c3ccc(-c4ccc(F)cc4)cn3)CC2)on1 [Compound 30, 3-dimethylcarbamoylisoxazol-5-ylmethyl 2-[5′-(4-fluorophenyl)-3,4,5,6-tetrahydro-2H-[1,2′]bipyridinyl-4-yl]-ethylcarbamate] | 149 to 151 °C
23 | NC(=O)c1cc(COC(=O)NCCC2CCN(c3cnc(-c4ccc(F)cc4)cn3)CC2)on1 [Compound 68, 3-carbamoylisoxazol-5-ylmethyl (2-{1-[5-(4-fluorophenyl)-pyrazin-2-yl]piperidin-4-yl}ethyl)carbamate] | 187 to 189 °C
24 | CNC(=O)c1cc(COC(=O)NCCC2(C)CCN(c3nccc(C(F)(F)F)n3)CC2)on1 [Compound 72, 3-methylcarbamoylisoxazol-5-ylmethyl {2-[4-methyl-1-(4-trifluoromethylpyrimidin-2-yl)piperidin-4-yl]ethyl}carbamate] | 160 to 162 °C
